Source: PMC7114128 (Antiviral Research, 2009)
Where two headings read alike, the source gives them in different places.

Tests used:
[1] = in vitro; settings: human
[2] = test system: wtSARS-CoV strain PUMC01 F5; assay type: cell-based, SARS-CoV
[3] = test system: HIV/SARS-CoV S pseudovirus; experiment: organism not typed; settings: HepG2
[4] = test system: HIV/SARS-CoV S pseudovirus
[5] = test system: TfR; assay type: cell-based
[6] = test system: ACE2; assay type: cell-based, human
[7] = test system: HepG2 cells
[8] = test system: CD59; assay type: cell-based

| Compound | CC50 [1] [mM] | IC50 [3] [mM] | SI (CC50/IC50) [4] | further results |
| --- | --- | --- | --- | --- |
| O=C(O)C=Cc1ccccc1O [2-Hydroxycinnamic acid] | 2.5 ± 0.122 | 0.3 ± 0.013 | – | Anti-SARS-CoV activity in wtSARS-CoV infection [2]: did not show any anti-SARS-CoV activities |
| OCCc1ccccc1 [2-Phenylethanol (phenethy alcohol), 2-Phenylethanol] | 24.5 ± 1.53 | 4.1 ± 0.199 | – | Anti-SARS-CoV activity in wtSARS-CoV infection [2]: did not show any anti-SARS-CoV activities |
| CC(=O)c1ccccc1O [2′-Hydroxyacetophenone] | 1.8 ± 0.071 | 1.8 ± 0.102 | 1 | – |
| COc1ccc(C=CC(=O)O)cc1OC [3,4-Dimethoxycinnamic acid] | 10 ± 0.62 | 5 ± 0.233 | 2 | – |
| C=CCc1ccc(OC)cc1 [4-Allylanisole] | 8 ± 0.563 | 8.4 ± 0.65 | – | – |
| COc1cc(C=CC=O)ccc1O [4-Hydroxy-3-methoxy cinnamaldehyde] | 0.7 ± 0.043 | 0.3 ± 0.013 | 2.3 | – |
| COc1cc(C=CC(=O)O)ccc1O [4-Hydroxy-3-methoxycinnamic acid] | 10 ± 0.555 | 5 ± 0.312 | 2 | – |
| O=c1cc(O)c2ccccc2o1 [4-Hydroxycoumarin] | 10.3 ± 0.66 | 10.3 ± 0.5 | 1 | – |
| O=c1ccc2ccc(O)cc2o1 [7-Hydroxycoumarin] | 10.7 ± 0.56 | 2.5 ± 0.172 | 4.3 | – |
| Oc1cc(O)c2c(c1)O[C@@]1(c3ccc(O)c(O)c3)Oc3cc(O)c4c(c3[C@@H]2[C@H]1O)O[C@H](c1ccc(O)c(O)c1)[C@H](O)[C@H]4c1c(O)cc(O)c2c1O[C@H](c1ccc(O)c(O)c1)[C@H](O)C2 [Cinnamtannin B1] | 0.242 ± 0.0148 | 0.0329 ± 0.0028 | – | Effect on TfR expression [5]: up-regulated; ACE2 expression versus untreated control (positive percentages and MFI) [6]: no significant difference; IC50 with virus pretreated (1 h) compared with drug added simultaneously (0 h) [2]: not different |
| CC(=O)OC/C=C/c1ccccc1 [Cinnamylacetate] | – | – | 1 | CC50 [7]: 7.1 ± 0.42 mM; IC50 [4]: 7.1 ± 0.35 mM |
| CCOC(=O)/C=C/c1ccccc1 [Ethylcinnamate] | 14.1 ± 1.22 | 7.1 ± 0.532 | 2.0 | – |
| C=CC(C)(C)c1cc(/C=C/C(=O)c2ccc(O)cc2)c(OC)cc1O [Licochalcone-A] | – | – | 1 | CC50 [7]: 0.03 ± 0.001 mM; IC50 [4]: 0.03 ± 0.003 mM |
| Oc1cc(O)c2c(c1)O[C@H](c1ccc(O)c(O)c1)[C@H](O)[C@H]2c1c(O)cc(O)c2c1O[C@H](c1ccc(O)c(O)c1)[C@@H](O)C2 [Procyanidin B1] | 0.656 ± 0.0367 | 0.161 ± 0.0203 | – | Effect on TfR expression [5]: did not affect; ACE2 expression versus untreated control (positive percentages and MFI) [6]: no significant difference; IC50 with virus pretreated (1 h) compared with drug added simultaneously (0 h) [2]: not different; Effect on CD59 expression [8]: did not affect |
| O=C/C=C/c1ccccc1 [Trans-cinnamaldehyde] | 0.2 ± 0.014 | 0.2 ± 0.016 | 1 | – |
| O=C(O)/C=C/c1ccccc1 [Trans-cinnamic acid] | – | – | – | CC50 [7]: 22.4 ± 1.23 mM; Anti-SARS-CoV activity in wtSARS-CoV infection [2]: did not show any anti-SARS-CoV activities; IC50 [4]: 3 ± 0.178 mM |
| Cc1ccc(C(C)C)cc1 [p-Cymene] | 75 ± 4.35 | 75 ± 5.55 | 1 | – |
| Oc1cc(O)c2c(c1)O[C@H](c1ccc(O)c(O)c1)[C@H](O)[C@H]2c1c(O)cc(O)c2c1O[C@H](c1ccc(O)c(O)c1)[C@H](O)C2 [procyanidins B2, procyanidin B2] | – | – | – | Effect on TfR expression [5]: nor up-regulate; Anti-SARS-CoV activity in wtSARS-CoV infection [2]: did not inhibit |
| Isoeugenol | – | – | – | IC50 [4]: 2 ± 0.142 mM |
